From patent US5776939A, “Drug resistance and multidrug resistance modulators” (Eli Lilly and Company, priority 1997, dated 1998)

What was measured:
p-glycoprotein = p-glycoprotein (Homo sapiens, UniProt P08183); conditions: for EC50: cem/vlb100 cells, 72 h; for Rev100 (lowest concentration of modifier which can achieve 100% reversal activity): human, 4320 min
Procedure: When in vitro testing for multidrug resistance modulation with cancer chemotherapeutic drugs is conducted compounds are evaluated for their ability to show multidrug resistance modulation when coadministered with an oncolytic.
The cells can be maintained in SMEM medium supplemented with 10% FBS and 2 mM L-glutamine in a humidified incubator with 95% air and 5% C02. Cell number can be determined using a Coulter Counter model ZM. Cells can be subcultured every 3-4 days.
Cell viability can be determined using a modified MTT dye reduction method (Denziot, F., Lang, R., "Rapid colorimetric assay for cell growth and survival modifications to the tetrazolium procedure giving improved sensitivity and reliability", J. Immunological Methods, 89, 271-277, (1986)). A brief description of this method is as follows: cells are harvested during the logarithmic growth phase, and seeded in 96-well serocluster plates at 7.5×10^3 cells/well and cultured for 72 hours in the presence of serially diluted oncolytics (VLB, DOX, VP-16 and Taxol®)±modulators. A single well assay is conducted using a fixed concentration of VLB (4 ng/ml) and modulator (5μM). The cytotoxicity of the modulator alone, at the same concentration is also determined. Modulators are prepared as 2 mM stocks in DMSO and added to the wells to give final concentrations ranging from 5 pM to 0.5 WM. After 72 hours, 20 µl of freshly prepared MTT (5 mg/ml in Dulbecco's phosphate buffered saline pH 7.5) is added to each well and placed for 4 hours in a 37° C. incubator. Cells are pelleted at 1800 R.P.M. for 10 minutes in a Sorvall RT6000B centrifuge. After centrifugation, 70 μl of medium is carefully removed from each well, and 100 µl of 2- propanol/0.04 N HC1 is added to dissolve the blue formazan stained cells. Cells are resuspended 5-10 times with a multipipettor or until no particulate matter was visible. Plates are immediately read on a Yitertek MCC/340 microplate reader (Flow Laboratories (McLean, VA) with a wavelength of 570 nm and a reference wavelength of 630 nm). Controls are measured in quadruplicate and modulators in duplicate.
IC50 's are calculated from semilog dose response curves in the presence and absence of modulators for both the parent and resistant cell lines. The fold shift is calculated as the IC50 for cells treated with oncolytic alone divided by the IC50 for cells treated with oncolytic+modulator.

drug-resistant malaria = conditions: in vitro; cited from earlier work
multidrug resistance = conditions: in vivo; cited from earlier work
[1] = in vivo; cited from earlier work

Sequence of p-glycoprotein (P08183 whole entry): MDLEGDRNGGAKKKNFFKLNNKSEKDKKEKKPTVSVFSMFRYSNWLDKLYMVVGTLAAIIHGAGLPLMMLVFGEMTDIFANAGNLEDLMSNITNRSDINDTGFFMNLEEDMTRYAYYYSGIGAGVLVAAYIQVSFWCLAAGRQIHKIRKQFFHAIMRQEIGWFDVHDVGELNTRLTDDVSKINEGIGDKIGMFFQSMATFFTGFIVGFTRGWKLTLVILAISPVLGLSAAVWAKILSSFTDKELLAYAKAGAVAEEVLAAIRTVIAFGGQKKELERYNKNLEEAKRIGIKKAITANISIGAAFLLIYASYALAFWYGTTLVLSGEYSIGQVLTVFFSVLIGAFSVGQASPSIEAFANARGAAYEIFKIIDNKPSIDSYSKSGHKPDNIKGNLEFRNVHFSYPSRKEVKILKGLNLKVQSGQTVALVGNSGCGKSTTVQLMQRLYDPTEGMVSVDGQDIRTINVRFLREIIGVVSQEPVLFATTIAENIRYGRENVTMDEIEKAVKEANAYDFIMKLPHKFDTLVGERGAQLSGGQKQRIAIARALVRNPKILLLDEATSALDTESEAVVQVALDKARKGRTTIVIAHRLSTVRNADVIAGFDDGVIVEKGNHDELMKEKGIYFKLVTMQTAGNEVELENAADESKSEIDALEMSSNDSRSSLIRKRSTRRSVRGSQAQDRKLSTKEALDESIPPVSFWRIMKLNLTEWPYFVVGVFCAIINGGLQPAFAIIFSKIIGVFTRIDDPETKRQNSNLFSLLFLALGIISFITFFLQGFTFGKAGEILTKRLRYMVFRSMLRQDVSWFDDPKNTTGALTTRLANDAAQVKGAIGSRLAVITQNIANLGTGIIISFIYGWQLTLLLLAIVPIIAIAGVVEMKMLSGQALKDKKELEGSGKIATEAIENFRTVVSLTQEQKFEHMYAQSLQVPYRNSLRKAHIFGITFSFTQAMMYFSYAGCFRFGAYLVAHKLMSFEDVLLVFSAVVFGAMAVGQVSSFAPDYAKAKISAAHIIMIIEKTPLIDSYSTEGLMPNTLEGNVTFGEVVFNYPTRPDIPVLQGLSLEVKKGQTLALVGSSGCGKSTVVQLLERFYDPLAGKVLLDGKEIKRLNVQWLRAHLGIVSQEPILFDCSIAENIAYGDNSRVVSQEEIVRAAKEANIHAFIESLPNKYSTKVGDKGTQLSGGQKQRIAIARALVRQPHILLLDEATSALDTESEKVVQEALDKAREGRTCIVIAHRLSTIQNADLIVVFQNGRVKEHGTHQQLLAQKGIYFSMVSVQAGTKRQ

Structure (SMILES)	MDR Reversal Activity (p-glycoprotein)	EC50 (p-glycoprotein) [nM]	Rev100 (lowest concentration of modifier which can achieve 100% reversal activity) (p-glycoprotein) [µM]	effect on drug-resistant malaria (drug-resistant malaria)	dose required to be effective as a multidrug resistance modulator (multidrug resistance)	oral bioavailability [1]
OC(CCc1cccc2ncccc12)CN1CCN([C@@H]2c3ccccc3[C@@H]3[C@H](c4ccccc42)C3(F)F)CC1 (stereo partly drawn) [Example 1e, anti-5-{1-(4-(10,11-difluorocyclopropyldibenzosuber-5-yl)piperazin-1-yl)-2(R,S)-hydroxybut-4-yl}quinoline·3HC1]	potent	1000	> 1.0			
COc1ccc(CCN(C)CCCC(C#N)(c2ccc(OC)c(OC)c2)C(C)C)cc1OC (stereo not drawn) [verapamil]				effective		
O=C(C(c1ccccc1)c1ccccc1)N1CCN(CC(O)COc2cccc3ncccc23)CC1 (stereo not drawn) [MS-209]					higher doses	better
O[C@@H](CSc1cccc2ncccc12)CN1CCN([C@@H]2c3ccccc3[C@@H]3[C@H](c4ccccc42)C3(F)F)CC1 [Example 2b, anti-5-{l-(4-(10,11-difluorocyclopropyldi-benzosuber-5-yl)piperazin-1-yl)-2(R)-hydroxyprop-3-ylthio}quinoline·3HC1]	potent	250	0.50			
